Literature values in US20230240962A1, “METHOD FOR DYEING KERATINOUS MATERIAL, COMPRISING THE USE OF AN ORGANOSILICON COMPOUND, AN ALKYL(POLY)GLYCOSIDE, A DYEING COMPOUND AND A POST-TREATMENT AGENT” (Henkel AG & Co. KGaA, priority 2020, published 2023).

Conditions: 25° C.

SMILES	solubility in water (in words)	solubility in water
Nc1cc(S(=O)(=O)[O-])cc2cc(S(=O)(=O)[O-])c(N=Nc3ccccc3)c(O)c12.[Na+].[Na+] [Acid Red 33, disodium salt of 5-amino-4-hydroxy-3-(phenylazo)-naphthalene-2,7-disulphonate]	–	2500 µg/mL
O=S(=O)([O-])c1ccc(N=Nc2c(O)ccc3ccccc23)cc1.[Na+] [Acid Orange 7, sodium salt of 4-[(2-hydroxy-1-naphthyl)azo]benzene sulphonate]	–	more than 7 g/L
CCN(Cc1cccc(S(=O)(=O)[O-])c1)c1ccc(C(=C2C=CC(=[N+](CC)Cc3cccc(S(=O)(=O)[O-])c3)C=C2)c2ccccc2S(=O)(=O)[O-])cc1.[Na+].[Na+] [Acid Blue 9]	–	more than 20 wt. %
O=C([O-])c1c(Cl)c(Cl)c(Cl)c(Cl)c1-c1c2c(Br)cc(=O)c(Br)c-2oc2c(Br)c(O)cc(Br)c12.O=C([O-])c1c(Cl)c(Cl)c(Cl)c(Cl)c1-c1c2c(Br)cc(=O)c(Br)c-2oc2c(Br)c(O)cc(Br)c12.[Na+].[Na+] [Acid Red 92, disodium salt of 3,4,5,6-tetrachloro-2-(1,4,5,8-tetrabromo-6-hydroxy-3-oxoxanthen-9-yl)benzoic acid]	–	greater than 10 g/L
O=C([O-])C1=NN(c2ccc(S(=O)(=O)[O-])cc2)C(=O)C1N=Nc1ccc(S(=O)(=O)[O-])cc1.[Na+].[Na+].[Na+] (centres unmarked) [Acid Yellow 23, trisodium salt of 4,5-dihydro-5-oxo-1-(4-sulfophenyl)-4-((4-sulfophenyl)azo)-1H-pyrazole-3-carboxylic acid]	highly soluble	–
